Test results reported in patent publication US12053447B2, “Oral solution and powder to liquid compositions of balsalazide” (NuBioPharma, LLC, priority 2019, dated 2024).
Residues, ends and D or L forms follow the SMILES beside them.

Assays:
[1] = Stability of sweetener aspartame in solution; assay type: physicochemical; details: pH 7.0 and above
[2] = Storage stability of liquid balsalazide solution (HPLC assay, settling); assay type: physicochemical
Procedure: The storage stability of two balsalazide disodium solutions, 750 mg/5 ml, with the formulations described in TABLE 6 and TABLE 7 with pH of 4.8 and pH 7.2, respectively were subjected to accelerated stability testing at 40° C. and at room temperature (25° C.). Balsalazide solutions stored in amber PVC bottles (30 ml volume) were tested over a 90-day storage period. The amount of balsalazide and its known impurities were determined by a validated high pressure liquid chromatography (HPLC) assay after 0 day (initial), 45 days, and 90 days and results are shown in TABLE 6 below. Five minor impurities (less than 0.1% each) were identified in balsalazide solution initially on day 0.

Row | stability in solution [1] | stability of oral solution ([2]; acidic conditions of pH below 7.0) | stability of oral solution ([2]; pH of 7.0 or higher) | SMILES
1 | unstable | – | – | COC(=O)[C@H](Cc1ccccc1)NC(=O)[C@@H](N)CC(=O)O [aspartame] (H-Asp-Phe-OMe)
2 | – | unstable | stable | O=C(O)CCNC(=O)c1ccc(/N=N/c2ccc(O)c(C(=O)O)c2)cc1 [balsalazide]
